Assays:
Assay in all cases: area under concentration-response curve (viability) (AUC (a.u.)); higher = less active
Settings in all cases: 48 h
CU-ACC2 = tested on: CU-ACC2
Procedure, shortened: (§1)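 Three adrenocortical carcinoma cell lines were exposed for 48 h to library compounds at 11 concentrations in 1,536-well plates, then read by CellTiter-Glo luminescence. Signals were scaled per plate against vehicle and empty-well controls. From fitted concentration-response curves of inhibitory or non-responding classes alone, AC50 and area under the curve were obtained.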

CU-ACC1 = tested on: CU-ACC1
Procedure, shortened: as §1

NCI-H295R = tested on: NCI-H295R
Procedure, shortened: as §1

Cc1cc(SCc2sc(-c3ccc(C(F)(F)F)cc3)nc2C)ccc1OCC(=O)O
area under concentration-response curve (CU-ACC2): 608 | area under concentration-response curve (CU-ACC1): 517 | area under concentration-response curve (NCI-H295R): 540

Cn1cc(-c2ccc3ncc(Cc4ccc5ncccc5c4)n3n2)cn1
area under concentration-response curve (CU-ACC2): 545 | area under concentration-response curve (CU-ACC1): 450 | area under concentration-response curve (NCI-H295R): 497

O=C(O)/C=C/c1ccc(Cn2ccnc2)cc1
area under concentration-response curve (CU-ACC2): 486 | area under concentration-response curve (CU-ACC1): 485 | area under concentration-response curve (NCI-H295R): 572

CN(C)[C@H]\1[C@@H]2[C@@H](O)[C@H]3\C(=C(O)/[C@]2(O)C(=O)\C(=C1O)C(N)=O)C(=O)C4=C(C=CC=C4O)[C@@]3(C)O
area under concentration-response curve (CU-ACC2): 625 | area under concentration-response curve (CU-ACC1): 593 | area under concentration-response curve (NCI-H295R): 530

OCCC#Cc1nc(-c2ccc(F)cc2)c(-c2ccncc2)n1CCCc1ccccc1
area under concentration-response curve (CU-ACC2): 536 | area under concentration-response curve (CU-ACC1): 513 | area under concentration-response curve (NCI-H295R): 475

C/C(O)=C(\C#N)C(=O)Nc1ccc(C(F)(F)F)cc1
area under concentration-response curve (CU-ACC2): 607 | area under concentration-response curve (CU-ACC1): 503 | area under concentration-response curve (NCI-H295R): 524

COc1ccc2[nH]cc(CCNC(C)=O)c2c1
area under concentration-response curve (CU-ACC2): 668 | area under concentration-response curve (CU-ACC1): 592 | area under concentration-response curve (NCI-H295R): 578

ClC1=C(N\C2=N\CCN2)C3=NSN=C3C=C1
area under concentration-response curve (CU-ACC2): 609 | area under concentration-response curve (CU-ACC1): 412 | area under concentration-response curve (NCI-H295R): 541

O[C@H](C[C@H]1c2c(F)cccc2-c2cncn21)[C@H]1CC[C@H](O)CC1
area under concentration-response curve (CU-ACC2): 616 | area under concentration-response curve (CU-ACC1): 553 | area under concentration-response curve (NCI-H295R): 536

NNCCc1ccccc1.O=S(=O)(O)O
area under concentration-response curve (CU-ACC2): 530 | area under concentration-response curve (CU-ACC1): 450 | area under concentration-response curve (NCI-H295R): 486

CC[C@H](/C=C/[C@@H](C)[C@H]1CC[C@H]2[C@@H]3CC=C4C[C@@H](O)CC[C@]4(C)[C@H]3CC[C@]12C)C(C)C
area under concentration-response curve (CU-ACC2): 612 | area under concentration-response curve (CU-ACC1): 550 | area under concentration-response curve (NCI-H295R): 602

CNC(=O)CN1CCC(Oc2cc3c(Nc4cccc(Cl)c4F)ncnc3cc2OC)CC1
area under concentration-response curve (CU-ACC2): 572 | area under concentration-response curve (CU-ACC1): 501 | area under concentration-response curve (NCI-H295R): 570

CC(C)C1CCC(C(=O)N[C@H](Cc2ccccc2)C(=O)O)CC1 (stereo partly specified)
area under concentration-response curve (CU-ACC2): 652 | area under concentration-response curve (CU-ACC1): 551 | area under concentration-response curve (NCI-H295R): 599

CC[C@H](CC[C@@H](C)[C@H]1CC[C@H]2[C@@H]3C\C=C/4C[C@@H](O)CC[C@]4(C)[C@H]3CC[C@]12C)C(C)C
area under concentration-response curve (CU-ACC2): 396 | area under concentration-response curve (CU-ACC1): 413 | area under concentration-response curve (NCI-H295R): 421

COc1cc2c(cc1OC)CN(CCc1ccc(NC(=O)c3cc(OC)c(OC)cc3NC(=O)c3cnc4ccccc4c3)cc1)CC2
area under concentration-response curve (CU-ACC2): 640 | area under concentration-response curve (CU-ACC1): 560 | area under concentration-response curve (NCI-H295R): 569

C[S+](=O)([O-])c1ccc(C(=O)Nc2ccc(Cl)c(-c3ccccn3)c2)c(Cl)c1
area under concentration-response curve (CU-ACC2): 674 | area under concentration-response curve (CU-ACC1): 544 | area under concentration-response curve (NCI-H295R): 591

COc1nc(C)nc(Cl)c1NC1=NCCN1
area under concentration-response curve (CU-ACC2): 436 | area under concentration-response curve (CU-ACC1): 468 | area under concentration-response curve (NCI-H295R): 504

CCC1=C(C)CN(C(=O)NCCc2ccc(S(=O)(=O)NC(=O)N[C@H]3CC[C@H](C)CC3)cc2)C1=O
area under concentration-response curve (CU-ACC2): 600 | area under concentration-response curve (CU-ACC1): 508 | area under concentration-response curve (NCI-H295R): 559

OC1=CC2=C(C(=C1)O)C(=O)\C(=C(/O2)C3=CC(=C(O)C=C3)O)O
area under concentration-response curve (CU-ACC2): 607 | area under concentration-response curve (CU-ACC1): 499 | area under concentration-response curve (NCI-H295R): 545

N#C/C(=C(/N)Sc1ccc(N)cc1)c1ccccc1C(F)(F)F
area under concentration-response curve (CU-ACC2): 574 | area under concentration-response curve (CU-ACC1): 533 | area under concentration-response curve (NCI-H295R): 585

CC(C)NCC(O)c1ccc(N[S+](C)(=O)[O-])cc1 (stereo unspecified)
area under concentration-response curve (CU-ACC2): 624 | area under concentration-response curve (CU-ACC1): 530 | area under concentration-response curve (NCI-H295R): 570

CCOC\1=C(/C(=O)NC2=CC=C(OC3=C(Cl)C(=NC=C3)N)C(=C2)F)C(=O)N(\C=C1)C4=CC=C(F)C=C4
area under concentration-response curve (CU-ACC2): 578 | area under concentration-response curve (CU-ACC1): 522 | area under concentration-response curve (NCI-H295R): 530

NCCCC(N)(C(=O)O)C(F)F (stereo unspecified)
area under concentration-response curve (CU-ACC2): 514 | area under concentration-response curve (CU-ACC1): 443 | area under concentration-response curve (NCI-H295R): 491

COc1cc(C(C)C)c(Oc2cnc(NC(CO)CO)nc2N)cc1I
area under concentration-response curve (CU-ACC2): 661 | area under concentration-response curve (CU-ACC1): 557 | area under concentration-response curve (NCI-H295R): 594

CC1(C)CC(O)CC(C)(C)N1[O]
area under concentration-response curve (CU-ACC2): 626 | area under concentration-response curve (CU-ACC1): 517 | area under concentration-response curve (NCI-H295R): 511

OC(=O)\C1=C\N(C2=CC=C(F)C=C2)C3=C(C=C(F)C(=C3)N4CCNCC4)C1=O
area under concentration-response curve (CU-ACC2): 549 | area under concentration-response curve (CU-ACC1): 485 | area under concentration-response curve (NCI-H295R): 497

CCN1C(=O)\C(=C/C2=C1N=C(NC3=CC=C(N4CCNCC4)C(=C3)F)N=C2)C5=CC=C(Cl)C=C5Cl
area under concentration-response curve (CU-ACC2): 580 | area under concentration-response curve (CU-ACC1): 518 | area under concentration-response curve (NCI-H295R): 537

CCc1c(C(=O)C(N)=O)c2c(OCC(=O)O)cccc2n1Cc1ccccc1
area under concentration-response curve (CU-ACC2): 599 | area under concentration-response curve (CU-ACC1): 572 | area under concentration-response curve (NCI-H295R): 550

Cc1cn2cc(C(=O)N(C)CCO)cc(N[C@@H]3CCOc4cccc(C)c43)c2n1
area under concentration-response curve (CU-ACC2): 620 | area under concentration-response curve (CU-ACC1): 534 | area under concentration-response curve (NCI-H295R): 581

NCCc1ccc(O)c(O)c1
area under concentration-response curve (CU-ACC2): 586 | area under concentration-response curve (CU-ACC1): 506 | area under concentration-response curve (NCI-H295R): 478

Cn1c(=O)c2[nH]cnc2n(C)c1=O
area under concentration-response curve (CU-ACC2): 555 | area under concentration-response curve (CU-ACC1): 447 | area under concentration-response curve (NCI-H295R): 469

CN(N=O)C(=O)N[C@@H]1[C@@H](O)[C@H](O)[C@@H](CO)O[C@@H]1O
area under concentration-response curve (CU-ACC2): 590 | area under concentration-response curve (CU-ACC1): 502 | area under concentration-response curve (NCI-H295R): 548

OC[C@H]1OC(O)C[C@@H](O)[C@@H]1O (stereo partly specified)
area under concentration-response curve (CU-ACC2): 694 | area under concentration-response curve (CU-ACC1): 562 | area under concentration-response curve (NCI-H295R): 607

CCC(C)(Oc1ccc(C2(c3ccc(OC(C)(CC)C(=O)O)cc3)CCCCC2)cc1)C(=O)O (stereo unspecified)
area under concentration-response curve (CU-ACC2): 572 | area under concentration-response curve (CU-ACC1): 500 | area under concentration-response curve (NCI-H295R): 470

COC[C@@H](c1ccc(C(F)(F)F)cc1)N1CCN(C2(C)CCN(C(=O)c3c(C)ncnc3C)CC2)C[C@@H]1C
area under concentration-response curve (CU-ACC2): 541 | area under concentration-response curve (CU-ACC1): 501 | area under concentration-response curve (NCI-H295R): 513

OC(COC1=C2C(=O)\C=C(/OC2=CC=C1)C([O-])=O)COC3=C4C(=O)\C=C(/OC4=CC=C3)C([O-])=O
area under concentration-response curve (CU-ACC2): 624 | area under concentration-response curve (CU-ACC1): 527 | area under concentration-response curve (NCI-H295R): 555

O=C(Nc1nccs1)C(c1cc(F)ccc1O)N1Cc2ccccc2C1=O (stereo unspecified)
area under concentration-response curve (CU-ACC2): 557 | area under concentration-response curve (CU-ACC1): 504 | area under concentration-response curve (NCI-H295R): 524

— the supplement of paper PMC10949913
